Like-named read-outs stand apart in the source and are kept apart here.
Experiments:
Assay in all cases: Radioligand binding assay, cloned receptor
human GALR2 = biological target: T1, human GALR2 (Homo sapiens, UniProt O43603); conditions: read-out: hGALR2 Ki
T1 construct: expressed in transfected cells
T1 sequence (O43603 1-387): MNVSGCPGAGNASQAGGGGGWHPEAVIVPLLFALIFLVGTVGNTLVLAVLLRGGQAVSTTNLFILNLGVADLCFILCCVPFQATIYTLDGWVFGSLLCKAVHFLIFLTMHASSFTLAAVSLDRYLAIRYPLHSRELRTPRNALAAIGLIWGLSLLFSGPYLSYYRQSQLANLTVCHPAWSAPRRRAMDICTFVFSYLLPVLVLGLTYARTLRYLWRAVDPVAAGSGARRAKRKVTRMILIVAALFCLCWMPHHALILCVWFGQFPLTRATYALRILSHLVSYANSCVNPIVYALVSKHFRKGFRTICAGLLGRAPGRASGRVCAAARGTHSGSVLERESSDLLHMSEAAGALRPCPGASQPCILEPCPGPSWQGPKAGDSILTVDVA
Protocol: (§1) For binding assays, pellets of transfected cells are suspended in ice-cold buffer (20 mM Tris.HCl, 5 mM EDTA, pH 7.4) and homogenized by sonication for 7 sec. The cell lysates are centrifuged at 200×g for 5 min at 4° C. The supernatants are then centrifuged at 40,000×g for 20 min at 4° C. The resulting pellets are washed once in the homogenization buffer and suspended in binding buffer (see methods for radioligand binding). Protein concentrations are determined by the method of Bradford (1976) using bovine serum albumin as the standard. Binding assays are usually performed immediately, however it is possible to prepare membranes in batch and store frozen in liquid nitrogen for future use.
(§2) The methods to obtain the cDNA of the human NPY1, NPY5, GALR1, GALR2, and GALR3 and rat 5-HT2C receptors, express said receptors in heterologous systems, and carry out assays to determine binding affinity are described in the following publications and above: human NPY1 (Larhammar et al., 1992), human NPY5 (U.S. Pat. No. 5,602,024, the disclosure of which is hereby incorporated by reference in its entirety into this application), human Gal1 (Habert-Ortoli et al., 1994), human Gal2 (Smith et al., 1997), human Gal3 (Smith et al., 1998), and rat 5-HT2C (Julius et al., 1988).

human GALR3 = biological target: T2, human GALR3 (Homo sapiens, UniProt O60755); conditions: read-out: hGALR3 Ki
T2 construct: expressed in transfected cells
T2 sequence (O60755 1-368): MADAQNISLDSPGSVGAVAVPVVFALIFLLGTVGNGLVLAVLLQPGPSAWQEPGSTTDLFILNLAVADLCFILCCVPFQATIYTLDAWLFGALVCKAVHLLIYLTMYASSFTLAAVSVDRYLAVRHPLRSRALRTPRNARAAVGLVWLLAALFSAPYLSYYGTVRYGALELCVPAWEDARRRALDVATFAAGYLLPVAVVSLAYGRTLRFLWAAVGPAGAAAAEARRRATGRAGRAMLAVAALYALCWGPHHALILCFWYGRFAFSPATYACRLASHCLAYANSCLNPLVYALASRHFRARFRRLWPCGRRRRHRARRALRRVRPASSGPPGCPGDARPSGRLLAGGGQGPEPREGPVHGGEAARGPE
Protocol: as §1, §2

human NPY1 = biological target: T3, human NPY1 (Homo sapiens, UniProt P25929); conditions: read-out: hNPY1 Ki
T3 construct: expressed in transfected cells
T3 sequence (P25929 1-384): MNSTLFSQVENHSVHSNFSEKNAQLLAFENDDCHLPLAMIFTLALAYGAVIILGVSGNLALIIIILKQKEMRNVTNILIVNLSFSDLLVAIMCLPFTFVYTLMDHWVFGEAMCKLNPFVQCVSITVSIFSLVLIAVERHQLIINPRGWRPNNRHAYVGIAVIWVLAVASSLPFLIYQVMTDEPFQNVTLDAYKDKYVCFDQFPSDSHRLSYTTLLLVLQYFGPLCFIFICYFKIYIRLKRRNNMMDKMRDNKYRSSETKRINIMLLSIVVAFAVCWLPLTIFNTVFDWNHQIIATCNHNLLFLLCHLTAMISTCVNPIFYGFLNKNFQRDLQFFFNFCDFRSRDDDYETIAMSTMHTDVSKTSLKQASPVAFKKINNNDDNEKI
Protocol: as §1, §2

human NPY5 = biological target: T4, human NPY5 (Homo sapiens, UniProt Q15761); conditions: read-out: hNPY5 Ki
T4 construct: expressed in transfected cells
T4 sequence (Q15761 1-445): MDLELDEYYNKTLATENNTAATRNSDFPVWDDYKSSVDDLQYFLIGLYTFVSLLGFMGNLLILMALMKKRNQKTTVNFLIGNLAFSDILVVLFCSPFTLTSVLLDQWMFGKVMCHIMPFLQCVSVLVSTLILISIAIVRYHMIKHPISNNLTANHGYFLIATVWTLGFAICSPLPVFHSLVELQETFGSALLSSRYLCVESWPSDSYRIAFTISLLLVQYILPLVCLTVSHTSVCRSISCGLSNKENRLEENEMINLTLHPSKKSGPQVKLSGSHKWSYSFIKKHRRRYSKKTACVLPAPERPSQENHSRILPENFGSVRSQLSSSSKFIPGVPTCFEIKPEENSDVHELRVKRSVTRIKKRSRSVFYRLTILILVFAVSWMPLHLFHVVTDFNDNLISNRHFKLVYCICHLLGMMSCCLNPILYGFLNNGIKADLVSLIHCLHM
Protocol: as §1, §2

rat 5-HT2C receptor = biological target: T5, rat 5-HT2C receptor (Rattus norvegicus, UniProt P08909); conditions: read-out: r5HT2C Ki
T5 construct: expressed in transfected cells
T5 sequence (P08909 33-460): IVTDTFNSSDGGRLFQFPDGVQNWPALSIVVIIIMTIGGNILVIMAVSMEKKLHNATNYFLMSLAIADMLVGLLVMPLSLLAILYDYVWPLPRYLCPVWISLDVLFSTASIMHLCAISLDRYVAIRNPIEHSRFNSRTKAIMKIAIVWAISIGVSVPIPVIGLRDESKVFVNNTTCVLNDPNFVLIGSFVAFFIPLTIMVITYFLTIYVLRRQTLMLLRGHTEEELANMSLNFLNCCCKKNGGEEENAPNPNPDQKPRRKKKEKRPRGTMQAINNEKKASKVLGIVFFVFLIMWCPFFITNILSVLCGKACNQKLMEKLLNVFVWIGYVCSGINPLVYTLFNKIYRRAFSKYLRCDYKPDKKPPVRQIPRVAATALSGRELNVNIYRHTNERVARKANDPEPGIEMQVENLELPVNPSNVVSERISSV
Protocol: as §1, §2

Measured: Ki

2-(3,4-DIFLUOROPHENYL)4,5-DIHYDROIMIDAZOLE-1-CARBOXYLIC ACID {3-[4-PHENYL-4-(4-BROMO-5-METHYLTHIOPNEN-2-YL)]PROPYL}-AMIDE [Example 19]
> 50 µM: human GALR2; Table 2 | human GALR2; Table 3 | human GALR3; Table 2 | human GALR3; Table 3 | human NPY1; Table 2 | human NPY1; Table 3 | human NPY5; Table 2 | human NPY5; Table 3
11.7 µM: rat 5-HT2C receptor; Table 2 | rat 5-HT2C receptor; Table 3

From patent US6720324B2, “Selective melanin concentrating hormone-1 (MCH1) receptor antagonists and uses thereof” (Synaptic Pharmaceutical Corporation, priority 2000, dated 2004)
